# In the supplement of paper PMC10307832:
# What was measured:
# Test in all cases: relative viability (nuclei count vs DMSO), 5 days (fraction); higher = more cells survive
# PAC-1 + Decitabine = compound: C=CCc1cccc(/C=N/NC(=O)CN2CCN(Cc3ccccc3)CC2)c1O [PAC-1] + Nc1ncn([C@H]2C[C@H](O)[C@@H](CO)O2)c(=O)n1 [Decitabine] (partner 2 µM)
# How it was run: (§1)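 Lung cancer cell lines were seeded in 1536-well plates and dosed by pin tool the next day, with either a single drug or a fixed anchor-drug dose combined with five library-drug doses (not always all listed) spaced in √10 steps. Five days later, one step fixed the cells and stained their nuclei (final 0.05% Triton X-100, 1% formaldehyde, 1 ug/ml Hoechst), and nuclei were counted on 4× images. Relative viability is the nuclei count in treated wells divided by the count in vehicle wells, and each value is the median of duplicate plates.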
# PAC-1 + Linsitinib = compound: C=CCc1cccc(/C=N/NC(=O)CN2CCN(Cc3ccccc3)CC2)c1O [PAC-1] + C[C@]1(O)C[C@@H](c2nc(-c3ccc4ccc(-c5ccccc5)nc4c3)c3c(N)nccn32)C1 [Linsitinib] (partner 1 µM)
# How it was run: as §1
# BMX-IN-1 + Trametinib = compound: C=CC(=O)Nc1cc(-n2c(=O)ccc3cnc4ccc(-c5ccc(NS(C)(=O)=O)cc5)cc4c32)ccc1C [BMX-IN-1] + CC(=O)Nc1cccc(-n2c(=O)n(C3CC3)c(=O)c3c(Nc4ccc(I)cc4F)n(C)c(=O)c(C)c32)c1 [Trametinib] (partner 0.02 µM)
# How it was run: as §1
# Ibrutinib + Foretinib = compound: C=CC(=O)N1CCC[C@@H](n2nc(-c3ccc(Oc4ccccc4)cc3)c3c(N)ncnc32)C1 [Ibrutinib] + COc1cc2c(Oc3ccc(NC(=O)C4(C(=O)Nc5ccc(F)cc5)CC4)cc3F)ccnc2cc1OCCCN1CCOCC1 [Foretinib] (partner 0.25 µM)
# How it was run: as §1
cell line,measurement,setting,value
SK-MES-1,relative viability,PAC-1 + Decitabine; first compound 0.02 µM,0.432
same,relative viability,PAC-1 + Decitabine; first compound 0.06325 µM,0.389
same,relative viability,PAC-1 + Decitabine; first compound 0.2 µM,0.325
same,relative viability,PAC-1 + Decitabine; first compound 2 µM,0.322
same,relative viability,PAC-1 + Linsitinib; first compound 0.02 µM,1.04
same,relative viability,PAC-1 + Linsitinib; first compound 0.06325 µM,1.03
same,relative viability,PAC-1 + Linsitinib; first compound 0.2 µM,1.04
same,relative viability,PAC-1 + Linsitinib; first compound 2 µM,1.03
same,relative viability,BMX-IN-1 + Trametinib; first compound 0.02 µM,0.603
same,relative viability,BMX-IN-1 + Trametinib; first compound 0.2 µM,0.542
same,relative viability,BMX-IN-1 + Trametinib; first compound 0.6325 µM,0.561
same,relative viability,BMX-IN-1 + Trametinib; first compound 2 µM,0.537
same,relative viability,Ibrutinib + Foretinib; first compound 0.005 µM,1.03
same,relative viability,Ibrutinib + Foretinib; first compound 0.01581 µM,0.884
same,relative viability,Ibrutinib + Foretinib; first compound 0.05 µM,0.841
same,relative viability,Ibrutinib + Foretinib; first compound 0.1581 µM,0.989
same,relative viability,Ibrutinib + Foretinib; first compound 0.5 µM,0.582
